Starred links: 1 amine or outer side, 2 acyl side, 3 side chain; linkers in the order of their positions; H or OH if unused. Positions of bridges follow the written chain, without caps; N, C: chain ends. Non-standard residues stand in square brackets, D forms with d. Residues, ends and D or L forms follow the SMILES beside them. *: point of attachment. NMePhe(3-Cl) = CN[C@@H](Cc1cccc(Cl)c1)C(=O)O; X9 = O=C(CN(CCOc1ccccc1)[*:1])[*:2]; NMeF = CN[C@@H](Cc1ccccc1)C(=O)O; NMeI = CC[C@H](C)[C@H](NC)C(=O)O; Butyl(3-Me,3-OH) = CC(C)(O)CC*; NMeL = CN[C@@H](CC(C)C)C(=O)O; Propyl(2R-OH) = C[C@@H](O)C*; NMeV = CN[C@H](C(=O)O)C(C)C; NMeAbu = CC[C@H](NC)C(=O)O; NMeA = CN[C@@H](C)C(=O)O; Piperidide = C1CCN(*)CC1; Abu = CC[C@H](N)C(=O)O; CH2CMe2OH = CC(C)(O)C*; NBuGly = CCCCNCC(=O)O; Isopentyl = CC(C)CC*; NPrGly = CCCNCC(=O)O; Sar = CNCC(=O)O; tBu = CC(C)(C)*
Assay: Caco-2 membrane permeability, improved method as used in the following Examples (96-well, 20 to 24 h preincubation)
Type: in vitro ADME
Conditions: human, Caco-2, Caco-2
Outline: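 Caco-2 monolayers were grown three weeks and preincubated 20–24 h at 37 °C with compound in DMEM+FaSSIF (1% DMSO) apically. The assay then used compound in FaSSIF/HBSS (1% DMSO, pH 6.0) apically and HBSS with 4% BSA (pH 7.4) basally. Basal samples were taken at 180 min for LC/MS, and Papp (cm/sec) was calculated.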

Structure (SMILES)	Papp A→B at 180 min [×10⁻⁶ cm/s]
CC[C@H]1C(=O)N[C@@H]([C@@H](C)O)C(=O)N(C)CC(=O)N(C)[C@@H](Cc2ccccc2)C(=O)N(C)[C@@H](CC)C(=O)N[C@@H](COC(C)(C)C)C(=O)N(C)[C@@H](CC(C)C)C(=O)N[C@H](C(=O)N2CCCCC2)CC(=O)N(CCOc2ccccc2)CC(=O)N(C)[C@@H](CC(C)C)C(=O)N[C@@H](CC(C)C)C(=O)N1C [pd421] ([X9][NMeL]L[NMeAbu]T[Sar][NMeF][NMeAbu]S(tBu)[NMeL]D-Piperidide; lactam N-11)	1.3
CCCCN1CC(=O)N(C)[C@@H](C)C(=O)N[C@@H](COC(C)(C)C)C(=O)N(C)[C@@H](CC(C)C)C(=O)N(CCOc2ccccc2)CC(=O)N[C@H](C(=O)N2CCCCC2)CC(=O)N[C@H](CC(C)C)C(=O)N(C)[C@@H](Cc2ccccc2)C(=O)N[C@@H](CC(C)C)C(=O)N(C)[C@@H](CC)C(=O)N[C@@H]([C@@H](C)O)C1=O [pd422] ([dL][NMeF]L[NMeAbu]T[NBuGly][NMeA]S(tBu)[NMeL][X9]D-Piperidide; lactam N-11)	1
CC[C@H](C)[C@@H]1NC(=O)[C@H](CC(C)C)N(C)C(=O)[C@@H](C)NC(=O)C[C@@H](C(=O)N2CCCCC2)NC(=O)[C@H](CC)N(C)C(=O)[C@H](Cc2ccccc2)N(C)C(=O)[C@H](COC(C)(C)C)NC(=O)[C@H](CC(C)C)N(C)C(=O)[C@H](CC)N(C)C(=O)[C@H]([C@@H](C)O)NC(=O)CN(CCOc2ccccc2)C1=O [pd423] ([dA][NMeL]I[X9]T[NMeAbu][NMeL]S(tBu)[NMeF][NMeAbu]D-Piperidide; lactam N-11)	1
CC[C@@H]1NC(=O)[C@H](Cc2ccccc2)N(C)C(=O)[C@H](CC(C)C)N(C)C(=O)[C@H](CC(C)C)NC(=O)[C@H](CC)N(C)C(=O)C[C@@H](C(=O)N2CCCCC2)NC(=O)[C@H](CC(C)C)N(C)C(=O)CN(C)C(=O)[C@H]([C@@H](C)O)NC(=O)CN(CCOc2ccccc2)C(=O)[C@H](CC(C)C)N(C)C1=O [pd424] ([NMeAbu]L[NMeL][NMeF][Abu][NMeL][X9]T[Sar][NMeL]D-Piperidide; lactam N-11)	1.2
CCCN1CC(=O)N(C)[C@@H](CC(C)C)C(=O)N[C@H](C(=O)N2CCCCC2)CC(=O)N(C)[C@@H](C)C(=O)N[C@@H](COC[C@@H](C)O)C(=O)N(C)[C@@H](CC(C)C)C(=O)N(C)[C@@H](Cc2cccc(Cl)c2)C(=O)N[C@@H](CC(C)C)C(=O)N(C)[C@@H](Cc2ccccc2)C(=O)N(C)[C@@H]([C@@H](C)CC)C(=O)N[C@@H]([C@@H](C)O)C1=O [pd425] ([NMeA]S(Propyl(2R-OH))[NMeL][NMePhe(3-Cl)]L[NMeF][NMeI]T[NPrGly][NMeL]D-Piperidide; lactam N-11)	1.2
CCCN1CC(=O)N(C)[C@@H](CC(C)C)C(=O)N[C@@H](COCCC(C)C)C(=O)N(C)[C@@H](Cc2ccccc2)C(=O)N(C)[C@@H](C(C)C)C(=O)N[C@H](C(=O)N2CCCCC2)CC(=O)N[C@H](C(C)C)C(=O)N(C)[C@@H](Cc2ccccc2)C(=O)N[C@@H](COCC(C)(C)O)C(=O)N(C)[C@@H](CC(C)C)C(=O)N[C@@H]([C@@H](C)O)C1=O [pd426] ([dV][NMeF]S(CH2CMe2OH)[NMeL]T[NPrGly][NMeL]S(Isopentyl)[NMeF][NMeV]D-Piperidide; lactam N-11)	1.4
CC(C)C[C@@H]1NC(=O)[C@H](Cc2ccccc2)N(C)C(=O)[C@@H](C(C)C)NC(=O)C[C@@H](C(=O)N2CCCCC2)NC(=O)[C@H](CC(C)C)N(C)C(=O)[C@H](Cc2cccc(Cl)c2)N(C)C(=O)[C@H](COCC(C)(C)O)NC(=O)[C@H](CC(C)C)N(C)C(=O)CN(C)C(=O)[C@H]([C@@H](C)O)NC(=O)[C@H](CC(C)C)N(C)C1=O [pd427] ([dV][NMeF]L[NMeL]T[Sar][NMeL]S(CH2CMe2OH)[NMePhe(3-Cl)][NMeL]D-Piperidide; lactam N-11)	1.3
CCCN1CC(=O)N(C)[C@@H](CC(C)C)C(=O)N[C@H](C(=O)N2CCCCC2)CC(=O)N(C)[C@@H](C)C(=O)N[C@@H](COCC(C)(C)O)C(=O)N(C)[C@@H](CC(C)C)C(=O)N(C)[C@@H](Cc2ccccc2)C(=O)N[C@@H](CC(C)C)C(=O)N(C)[C@@H](Cc2ccccc2)C(=O)N(C)[C@@H]([C@@H](C)CC)C(=O)N[C@@H]([C@@H](C)O)C1=O [pd428] ([NMeA]S(CH2CMe2OH)[NMeL][NMeF]L[NMeF][NMeI]T[NPrGly][NMeL]D-Piperidide; lactam N-11)	2.8
CCCN1CC(=O)N(C)[C@@H](CC(C)C)C(=O)N[C@H](C(=O)N2CCCCC2)CC(=O)N(C)[C@@H](C)C(=O)N[C@@H](CC(C)C)C(=O)N(C)[C@@H](CC(C)C)C(=O)N(C)[C@@H](Cc2ccccc2)C(=O)N[C@@H](COCC(C)(C)O)C(=O)N(C)[C@@H](Cc2ccccc2)C(=O)N(C)[C@@H]([C@@H](C)CC)C(=O)N[C@@H]([C@@H](C)O)C1=O [pd429] ([NMeA]L[NMeL][NMeF]S(CH2CMe2OH)[NMeF][NMeI]T[NPrGly][NMeL]D-Piperidide; lactam N-11)	3.3
CCCN1CC(=O)N(C)[C@@H](Cc2cccc(Cl)c2)C(=O)N(C)[C@@H](CC(C)C)C(=O)N[C@@H](COC(C)(C)C)C(=O)N(C)[C@@H](CC(C)C)C(=O)N[C@H](C(=O)N2CCCCC2)CC(=O)N(C)CC(=O)N(C)[C@@H](Cc2ccccc2)C(=O)N[C@@H](COCC(C)(C)O)C(=O)N(C)[C@@H](CC(C)C)C(=O)N[C@@H]([C@@H](C)O)C1=O [pd430] ([Sar][NMeF]S(CH2CMe2OH)[NMeL]T[NPrGly][NMePhe(3-Cl)][NMeL]S(tBu)[NMeL]D-Piperidide; lactam N-11)	1.3
CCCN1CC(=O)N(C)[C@@H](CC(C)C)C(=O)N[C@@H](COCC(C)(C)O)C(=O)N(C)[C@@H](Cc2ccccc2)C(=O)N(C)[C@@H](CC(C)C)C(=O)N[C@H](C(=O)N2CCCCC2)CC(=O)N[C@H](C(C)C)C(=O)N(C)[C@@H](Cc2ccccc2)C(=O)N[C@@H](CC(C)C)C(=O)N(C)[C@@H](CC(C)C)C(=O)N[C@@H]([C@@H](C)O)C1=O [pd432] ([dV][NMeF]L[NMeL]T[NPrGly][NMeL]S(CH2CMe2OH)[NMeF][NMeL]D-Piperidide; lactam N-11)	1.5
CC(C)CCOC[C@@H]1NC(=O)[C@H](CC(C)C)N(C)C(=O)CN(C)C(=O)[C@H]([C@@H](C)O)NC(=O)[C@H](CC(C)C)N(C)C(=O)[C@H](COCCC(C)(C)O)NC(=O)[C@H](Cc2ccccc2)N(C)C(=O)[C@@H](C(C)C)NC(=O)C[C@@H](C(=O)N2CCCCC2)NC(=O)[C@H](CC(C)C)N(C)C(=O)[C@H](Cc2ccccc2)N(C)C1=O [pd433] ([dV][NMeF]S(Butyl(3-Me,3-OH))[NMeL]T[Sar][NMeL]S(Isopentyl)[NMeF][NMeL]D-Piperidide; lactam N-11)	1.4
CC(C)C[C@@H]1NC(=O)[C@H](Cc2ccccc2)N(C)C(=O)[C@@H](C(C)C)NC(=O)C[C@@H](C(=O)N2CCCCC2)NC(=O)[C@H](CC(C)C)N(C)C(=O)[C@H](Cc2cccc(Cl)c2)N(C)C(=O)[C@H](COCCC(C)(C)O)NC(=O)[C@H](CC(C)C)N(C)C(=O)CN(C)C(=O)[C@H]([C@@H](C)O)NC(=O)[C@H](C(C)C)N(C)C1=O [pd434] ([dV][NMeF]L[NMeV]T[Sar][NMeL]S(Butyl(3-Me,3-OH))[NMePhe(3-Cl)][NMeL]D-Piperidide; lactam N-11)	1.7
